Measured values: the METLIN SMRT retention time set (Domingo-Almenara et al. 2019)

Test: gradient 5% acetonitrile 3 min, to 50% in 2 min, to 85% in 15 min, held 3 min, 100 µL/min
Conditions: column: Zorbax Extend-C18 2.1 x 50 mm; eluents: water / acetonitrile, 0.1% formic acid
Method in brief: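 Using water and acetonitrile that each contained 0.1% formic acid, mixtures of ~100 pure standards were separated at 100 μL/min on a Zorbax Extend-C18 column (2.1 × 50 mm, 1.8 μm). The HPLC fed a quadrupole time-of-flight mass spectrometer working in positive and negative ionization mode, with dead and dwell volumes of 40 μL and 900 μL. Data were acquired over 3 months. Retention time was read from computationally picked adduct peaks after manual inspection of each.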

Compared with `O=C(NCc1ccc(F)cc1)Nc1ccc(-c2nc(-c3ccccc3)co2)cc1`, `c1ccc(-c2nc3cc(-c4noc(-c5cccnc5)n4)ccc3o2)cc1` is higher in RP-LC retention time: 1050 s for the first, 1290 s for the second.

First: COc1ccc(CNC(=O)c2ccc(N3CCCS3(=O)=O)cc2)cc1OC
Second: CCc1ccccc1NC(=O)C1CCCN(S(=O)(=O)c2ccc(OC)c(C)c2)C1 (configuration not stated)
The RP-LC retention time of the first is lower: 652 s for the first, 1020 s for the second.

Compared with `CSc1cccc(NC(=O)N2CCN(C3=CC4=NC(C)CN4C=N3)CC2)c1` (configuration not stated), `COCCn1cc(CC(=O)N2CCN(c3ccccn3)CC2)c2cccnc21` is lower in RP-LC retention time: 638 s for the first, 569 s for the second.

First: CCCCNC1(c2cc3ccccc3s2)CCCCC1
Second: Cc1ccc(NC(=O)C2CCCN(C(=O)C3Sc4ccccc4NC3=O)C2)cc1Cl (configuration not stated)
The RP-LC retention time of the first is lower: 831 s for the first, 893 s for the second.

Compared with `C#CCSc1nc(=O)n2ccc(C)cc2n1`, `CCOC(=O)C(C)Sc1nnc2n1CCN2c1ccc(F)cc1` (configuration not stated) is higher in RP-LC retention time: 645 s for the first, 718 s for the second.

Compared with `O=C(NCC1CN(c2ccc3c(c2)OCO3)C(=O)O1)c1cccs1` (configuration not stated), `O=C(NCCn1c(CCc2ccccc2)nc2cccnc21)c1cccs1` is higher in RP-LC retention time: 678 s for the first, 687 s for the second.

First: Cc1ccc(CSc2ccc(-n3nc4c(c3C)CCC4)nn2)cc1
Second: COc1ccc(-c2nn(CCCC(=O)NCCc3ccc(C)cc3)c(=O)c3noc(C)c23)cc1
The RP-LC retention time of the first is higher: 1370 s for the first, 950 s for the second.

First: CC(C)c1ccc(NC(=O)C2CCN(S(=O)(=O)c3cn(C(C)C)cn3)CC2)cc1
Second: CC1CCN(S(=O)(=O)N2CCCC(C(=O)NCc3ccc(Cl)cc3)C2)CC1 (configuration not stated)
The RP-LC retention time of the first is lower: 900 s for the first, 1050 s for the second.

First: COc1ccc(C)cc1NC(=O)N1CC(c2nc(C(C)C)nn2C)C1
Second: Cc1ccc(NC(=O)C2CCCN(c3nc4c(s3)c(C)nn4-c3cccc(F)c3)C2)c(C)c1 (configuration not stated)
The RP-LC retention time of the first is lower: 710 s for the first, 1280 s for the second.

Going from `CCC(C)NC(=O)Cn1c(=O)cc(-c2nc(C)no2)c2ccccc21` (configuration not stated) to `Cc1cccc(-c2noc(C3CCCN3C(=O)Nc3ccccc3Cl)n2)c1` (configuration not stated), the RP-LC retention time falls from 755 s to 606 s.

Compared with `O=C(CS(=O)Cc1cnn(-c2ccccc2)c1-n1cccc1)NCc1cccc(F)c1` (configuration not stated), `O=C(Cn1ccc2ccccc21)Nc1ccccc1OC(F)(F)F` is lower in RP-LC retention time: 838 s for the first, 610 s for the second.

First: CCOc1ccc(C2c3[nH]c4ccccc4c3CCN2C(=O)C2CCC2)cc1 (configuration not stated)
Second: Cc1ccc(CNC(=O)C2(C)CCN(S(=O)(=O)c3ccccc3Cl)CC2)cc1
The RP-LC retention time of the first is higher: 1210 s for the first, 998 s for the second.

Compared with `O=C(NCCn1nnc2cc(C(=O)N3CCCC3)ccc21)Nc1ccc(Br)cc1`, `CCN(CC)c1ncc(NC(=O)c2ccc(Br)cc2)cc1C(=O)O` is lower in RP-LC retention time: 704 s for the first, 692 s for the second.

Compared with `c1ccc(OCc2cn(CCC3CCCCN3)nn2)cc1` (configuration not stated), `O[C@@H]1C[C@@H](c2nnc3n2CCN(Cc2ccccn2)C3)N(Cc2ccccc2)C1` is lower in RP-LC retention time: 552 s for the first, 537 s for the second.

First: COc1ccccc1CCN1CC(=O)N(c2cccc(C)c2)[C@@H]2CS(=O)(=O)C[C@@H]21
Second: COc1ccccc1OCC(=O)Nc1cc(-c2ccccn2)no1
The RP-LC retention time of the first is higher: 850 s for the first, 802 s for the second.

First: COc1cc(NC(=O)CN2C(=O)CN=C(c3ccccc3Cl)c3cc(Cl)ccc32)cc(OC)c1
Second: Cc1ccc(C)c(-c2cc3c4nn(CC(=O)NC5CCCC5)c(=O)n4ccn3n2)c1
The RP-LC retention time of the first is higher: 990 s for the first, 909 s for the second.

Going from `Fc1cccc(-c2nc(-c3cn(-c4cccc(F)c4)nn3)no2)c1` to `Cc1ccc(-c2nnc(-c3cccc(S(=O)(=O)NC(C)(C)C)c3)o2)cc1`, the RP-LC retention time falls from 1090 s to 1030 s.

Compared with `CCOC(=O)c1[nH]c(C)c(C(=O)N2CCC(CC(=O)N3CCN(CC)CC3)CC2)c1C`, `CCc1nc2cc(N3CCC(C(=O)NCc4cc(F)ccc4F)CC3)cnc2nc1CC` is higher in RP-LC retention time: 579 s for the first, 838 s for the second.

`Cn1cc2c3c(cccc31)CN(C(=O)Nc1ccccc1C(F)(F)F)CC2` showed an RP-LC retention time of 978 s.
